This is an account of results in patent US20130196052A1, “ANTIMICROBIAL/ANTIBACTERIAL MEDICAL DEVICES COATED WITH TRADITIONAL CHINESE MEDICINES” (ETHICON, INC., priority 2009, published 2013).

Series [1] is described as follows: Particle size analysis by laser diffraction. The series is classed as physicochemical. Particulars: commercial grade, needle-like crystals. The protocol: Studies were run using sutures coated with the sodium houttuyfonate antimicrobial coatings disclosed herein, with the sodium houttuyfonate coatings prepared using either ground or unground sodium houttuyfonate. The sutures were coated at two coating levels, using the coating method described hereinabove. Particle size analysis was performed using a Beckman Coulter model LS 320 laser diffraction particle size analyzer. Results for these studies are presented below in Tables 5-7 and graphically depicted in FIGS. 1 and 2.

Series [2] concerns Micrococcus catarrhalis, Staphylococcus aureus, Bacillus influenzae, pneumococcus, Escherichia coli, Bacillus dysenteria, Bacillus proteus, Bacillus …. Particulars: in words; cited from earlier work.
The conditions of series [3]: in words; cited from earlier work.
For series [4], the system named is Bacillus typhi, and Leptopira. Particulars: in words; cited from earlier work.
For series [5] the following is noted: cited from earlier work.
Another series relates to susceptible strains. Particulars: in words; cited from earlier work.

Take `CCCCCCCCCC(=O)CC(O)S(=O)(=O)O` (centres unmarked) [Commercial grade sodium houttuyfonate, sodium houttuyfonate]: the “particle size distribution, mean” value in series [1] is recorded as “approximately 145 μm”.
Regarding `CCCCCCCCCC(=O)CC=O` [Houttuynin, decanoyl acetaldehyde], the “inhibitory effect in vitro” value in series [2] is given as “marked inhibitory effect”. In series [3], the stability entry is “unstable and prone to polymerize”. Also, in series [4], the effect in vitro result is reported as “strong effect”.
On to `CCCCCCCCCC(=O)CC(O)S(=O)(=O)O` (centres unmarked) [sodium houttuyfonate], for which the “solubility in cold water” value in series [5] (cold water) is reported as “only slightly soluble”. In addition, in series [5] (organic solvents such as acetonitrile and methanol), the “solubility in most organic solvents” value is reported as “only slightly soluble”. Also, the stability entry in series [3] is reported as “more stable”.
For `Oc1cc(Cl)ccc1Oc1ccc(Cl)cc1Cl` [triclosan], the “mode of antibacterial activity” value in the series with susceptible strains is reported as “predominantly bacteriostatic activity”.
